These results are taken from patent US8778951B2, “Heteroaryl compounds and their uses” (Novartis AG, priority 2009, dated 2014).

Chain of Cdk9/cyclinT1 (P50750 whole entry): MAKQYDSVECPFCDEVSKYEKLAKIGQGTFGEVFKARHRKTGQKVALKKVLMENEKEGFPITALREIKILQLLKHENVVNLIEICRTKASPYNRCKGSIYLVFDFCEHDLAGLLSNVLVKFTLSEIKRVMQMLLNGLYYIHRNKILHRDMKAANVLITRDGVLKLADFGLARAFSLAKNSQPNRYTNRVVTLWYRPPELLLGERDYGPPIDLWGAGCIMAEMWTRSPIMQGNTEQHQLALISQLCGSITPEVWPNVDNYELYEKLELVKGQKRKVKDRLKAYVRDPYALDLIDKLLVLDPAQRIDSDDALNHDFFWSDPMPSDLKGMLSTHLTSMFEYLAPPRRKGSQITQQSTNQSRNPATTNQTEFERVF
Chain of Cdk9/cyclinT1 (O60563 whole entry partner): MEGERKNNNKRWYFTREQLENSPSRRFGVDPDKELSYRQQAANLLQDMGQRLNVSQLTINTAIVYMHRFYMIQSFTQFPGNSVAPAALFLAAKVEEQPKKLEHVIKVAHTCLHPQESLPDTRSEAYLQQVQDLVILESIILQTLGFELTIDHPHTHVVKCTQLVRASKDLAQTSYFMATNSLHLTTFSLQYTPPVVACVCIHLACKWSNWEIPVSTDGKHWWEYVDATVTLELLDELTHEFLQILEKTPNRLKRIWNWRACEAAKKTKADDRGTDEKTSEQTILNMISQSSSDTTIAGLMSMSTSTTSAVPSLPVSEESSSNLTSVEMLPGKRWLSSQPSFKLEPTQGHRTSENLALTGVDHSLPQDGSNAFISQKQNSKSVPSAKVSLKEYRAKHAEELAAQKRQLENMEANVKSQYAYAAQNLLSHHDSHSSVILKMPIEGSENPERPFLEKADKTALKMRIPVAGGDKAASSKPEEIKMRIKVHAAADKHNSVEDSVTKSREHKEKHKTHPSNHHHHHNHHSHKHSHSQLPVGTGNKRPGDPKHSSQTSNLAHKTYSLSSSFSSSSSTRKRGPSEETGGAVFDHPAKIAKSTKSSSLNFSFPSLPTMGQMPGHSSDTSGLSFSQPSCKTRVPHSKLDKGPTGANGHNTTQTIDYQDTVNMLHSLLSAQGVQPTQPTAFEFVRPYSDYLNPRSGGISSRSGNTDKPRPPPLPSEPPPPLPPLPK

For the experiment, the target named is Cdk9/cyclinT1 (Homo sapiens (Human), UniProt P50750). Put plainly: Cdk9/CyclinT1 IMAP Protocol (fluorescence polarization kinase assay). The following applies: Table 2; generated using one of the two Cdk9/cyclinT1 assays (IMAP or Alpha Screen), not specified which; unit inferred. Format: biochemical. In outline:
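Reaction used 4 nM Cdk9/cyclinT1, 100 nM 5TAMRA-cdk7tide peptide and 6 uM ATP in 100 mM Tris pH 7.2 with MgCl2, 0.01% Tween-20, 1 mM DTT and 2.5% DMSO, running 4.5 h. Phosphopeptide was captured by IMAP binding reagent for >1 h, then read by fluorescence polarization (ex 531/em 595 nm).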
The IC50 is the point on the concentration scale where inhibition reaches its midpoint. Regarding `Fc1cccc(CNc2cncc(-c3ccnc(N[C@H]4CC[C@H](NCc5ccccc5)CC4)c3)n2)c1` [Compound 10, trans-N1-benzyl-N4-(4-(6-(3-fluorobenzylamino)pyrazin-2-yl)pyridin-2-yl)cyclohexane-1,4-diamine], the IC50 was found to be 18.6 nM.

In the case of `CC1(C)OC[C@@H](CN[C@H]2CC[C@H](Nc3cc(-c4nc(NCC5CCOCC5)ccc4Cl)c(Cl)cn3)CC2)O1` [Compound 320, 3,5′-dichloro-N2′-(trans-4-(((R)-2,2-dimethyl-1,3-dioxolan-4-yl)methyl)aminocyclohexyl)-N6-((tetrahydro-2H-pyran-4-yl)methyl)-2,4′-bipyridine-2′,6-diamine], the IC50 was 1 nM.

With `COC[C@@H](C)N[C@H]1CC[C@H](Nc2cc(-c3ccc(F)c(NCC(CO)CO)n3)c(Cl)cn2)CC1` [Compound 367, 2-((5′-chloro-5-fluoro-2′-((1R,4r)-4-((R)-1-methoxypropan-2-ylamino)cyclohexylamino)-2,4′-bipyridin-6-ylamino)methyl)propane-1,3-diol], half-maximal inhibition (IC50) required 3.1 nM.

Consider `Fc1cccc(CNc2cccc(-c3cc(NC4CCNCC4)ncc3Cl)n2)c1` [Compound 5, 5′-chloro-N6-(3-fluorobenzyl)-N2′-(piperidin-4-yl)-2,4′-bipyridine-2′,6-diamine], for which the IC50 was found to be 39.7 nM.

As to `CCN(CC)[C@H]1CC[C@H](Nc2cc(-c3cccc(NCC4(C#N)CCOCC4)n3)c(Cl)cn2)CC1` [Compound 366, 4-((5′-chloro-2′-((1r,4r)-4-(diethylamino)cyclohexylamino)-2,4′-bipyridin-6-ylamino)methyl)tetrahydro-2H-pyran-4-carbonitrile], the IC50 worked out at 1 nM.

On to `Clc1cnc(NC2CCNCC2)cc1-c1cccc(NCc2ccccc2)n1` [Compound 69], for which the 50% inhibitory concentration (IC50) is 154 nM.

As for `COC[C@@H](C)N[C@H]1CC[C@H](Nc2cc(-c3cccc(NCC4(OC)CCCCC4)n3)c(Cl)cn2)CC1` [Compound 306], the IC50 turned out to be 9 nM.

Take `CN1CCC(CNc2cc(-c3cncc(NCC4CCOCC4)n3)c(Cl)cn2)CC1` [Compound 209]: inhibition was half-maximal at 183 nM (IC50).

In turn, `COCCN[C@H]1CC[C@H](Nc2cc(-c3cncc(NCC4CCOCC4)n3)c(Cl)cn2)CC1` [Compound 243, trans-N1-(5-chloro-4-(6-((tetrahydro-2H-pyran-4-yl)methyl)aminopyrazin-2-yl)pyridin-2-yl)-N4-(2-methoxyethyl)cyclohexane-1,4-diamine] came in with an IC50 of 7.95 nM.

Take `O[C@H]1CC[C@H](Nc2cc(-c3cccc(NC4CCOCC4)n3)c(Cl)cn2)CC1` [Compound 129]: half-maximal inhibition (IC50) required 390 nM.

The compound `O[C@H]1CC[C@H](Nc2cc(-c3cccc(NCc4ccc(F)cc4)n3)c(Cl)cn2)CC1` [Compound 134] yielded an IC50 of 10.5 nM.

As for `N[C@H]1CC[C@H](Nc2cc(-c3nc(NCC4CCOCC4)cnc3Cl)c(Cl)cn2)CC1` [Compound 223, trans-N1-(5-chloro-4-(3-chloro-6-((tetrahydro-2H-pyran-4-yl)methyl)aminopyrazin-2-yl)pyridin-2-yl)cyclohexane-1,4-diamine], inhibition was half-maximal at 7.95 nM (IC50).

In the case of `N[C@H]1CC[C@H](Nc2cc(-c3cccc(NCc4ccccc4)n3)ccn2)CC1` [Compound 31], the IC50 came out at 44.8 nM.

`Clc1cnc(N[C@H]2CCCNC2)cc1-c1cccc(NCc2ccncc2)n1` [Compound 99]: it took 679 nM to reach half-maximal inhibition (IC50).

`COC[C@@H](C)N[C@H]1CC[C@H](Nc2cc(-c3cccc(NCC4(C#N)CCOCC4)n3)c(Cl)cn2)CC1` [Compound 310, 4-((5′-chloro-2′-(trans-4-((R)-1-methoxypropan-2-yl-amino)cyclohexylamino)-2,4′-bipyridin-6-ylamino)methyl)tetrahydro-2H-pyran-4-carbonitrile]: the midpoint of inhibition, the IC50, lay at 0.3 nM.

Regarding `NC[C@H]1CC[C@H](Nc2cc(-c3cccc(OCc4cccc(F)c4)n3)c(Cl)cn2)CC1` [Compound 9, N-(trans-4-(aminomethyl)cyclohexyl)-5′-chloro-6-(3-fluorobenzyloxy)-2,4′-bipyridin-2′-amine], the IC50 turned out to be 7.95 nM.

As for `N[C@H]1CC[C@H](Nc2cc(-c3cncc(NCC4CCOCC4)n3)c(Cl)cn2)CC1` [Compound 203, trans-N1-(5-chloro-4-(6-((tetrahydro-2H-pyran-4-yl)methyl)aminopyrazin-2-yl)pyridin-2-yl)cyclohexane-1,4-diamine], half-maximal inhibition (IC50) required 7.94 nM.

On to `Fc1cccc(CNc2cccc(-c3cc(NC[C@@H]4CCCNC4)ncc3Cl)n2)c1` [Compound 166], for which 27 nM corresponded to half-maximal inhibition (IC50).

As for `N[C@H]1CC[C@H](Nc2cc(-c3cccc(NCc4cncc(F)c4)n3)c(Cl)cn2)CC1` [Compound 38], the half-maximal inhibitory concentration (IC50) worked out at 7.95 nM.

With `COC[C@@H](C)N[C@H]1CC[C@H](Nc2cc(-c3ccc(F)c(NCC4(C#N)CCOCC4)n3)c(Cl)cn2)CC1` [Compound 340, 4-((5′-chloro-5-fluoro-2′-(trans-4-((R)-1-methoxypropan-2-yl-amino)cyclohexylamino)-2,4′-bipyridin-6-ylamino)methyl)tetrahydro-2H-pyran-4-carbonitrile], it took 0.23 nM to reach half-maximal inhibition (IC50).

`COc1cnc(N[C@H]2CC[C@H](N)CC2)cc1-c1cccc(NCc2cccc(F)c2)n1` [Compound 180, N2′-(trans-4-aminocyclohexyl)-N6-(3-fluorobenzyl)-5′-methoxy-2,4′-bipyridine-2′,6-diamine] gave an IC50 of 12.1 nM.

`CN(C)CC(=O)NC[C@H]1CC[C@H](Nc2cc(-c3cccc(NCc4cccc(F)c4)n3)c(Cl)cn2)CC1` [Compound 82] had an IC50 of 9.05 nM.

`NC(=O)c1cc(NCc2cccc(F)c2)nc(-c2cc(N[C@H]3CC[C@H](N)CC3)ncc2Cl)c1` [Compound 16, 2′-(trans-4-aminocyclohexylamino)-5′-chloro-6-(3-fluorobenzylamino)-2,4′-bipyridine-4-carboxamide] showed an IC50 of 23.6 nM.

Consider `Fc1cccc(CNc2cccc(-c3cc(NCC[C@@H]4CCCNC4)ncc3Cl)n2)c1` [Compound 167], for which the IC50 stood at 18 nM.

Regarding `O[C@H]1CC[C@H](Nc2cc(-c3cncc(NCC4CCCOC4)n3)c(Cl)cn2)CC1` (some centres unmarked) [Compound 229], the IC50 came to 7.95 nM.

Turning to `O[C@@H](CN[C@H]1CC[C@H](Nc2cc(-c3nc(NCC4CCOCC4)ccc3Cl)c(Cl)cn2)CC1)C(F)(F)F` [Compound 290], the IC50 was 2 nM.

Regarding `NCCNc1cc(-c2cccc(NCc3cccc(F)c3)n2)c(Cl)cn1` [Compound 159], the IC50 was 1380 nM.

As for `O[C@H]1CC[C@H](Nc2cc(-c3cncc(NC[C@@H]4CCCOC4)n3)c(Cl)cn2)CC1` [Compound 264], the IC50 was 7.94 nM.

Consider `Fc1cccc(CNc2cccc(-c3cc(N[C@H]4CCCNC4)ncc3Cl)n2)c1` [Compound 97], for which half-maximal inhibition (IC50) was put at 339 nM.

`CS(=O)(=O)CCN[C@H]1CC[C@H](Nc2cc(-c3nc(NCC4CCOCC4)ccc3Cl)c(Cl)cn2)CC1` [Compound 254, 3,5′-dichloro-N2′-(trans-4-(2-(methylsulfonyl)ethylamino)cyclohexyl)-N6-((tetrahydro-2H-pyran-4-yl)methyl)-2,4′-bipyridine-2′,6-diamine]: the IC50 is 8.33 nM.

Compound `Clc1ccc(NCC2CCOCC2)nc1-c1ccnc(N[C@H]2CC[C@H](NC[C@H]3CCCO3)CC2)c1` [Compound 273] had an IC50 of 22.9 nM.

In the case of `Clc1cnc(N[C@H]2CC[C@H](NCC3COCCO3)CC2)cc1-c1nc(NCC2CCOCC2)ccc1Cl` (some centres unmarked) [Compound 271], the IC50 came out at 7.94 nM.
